From PubChem BioAssay (NCI)
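Exposure lasted 48 hours, with cells grown in 96-well plates and compounds tested at five concentrations. GI50 = concentration required for 50% inhibition of growth. Definition used: TGI = concentration required for complete inhibition of growth.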

What was measured:
Assay in all cases: NCI-60 cell line screen, 48 h
HCT-116 colon = test system: HCT-116 colon
OVCAR-3 ovarian = test system: OVCAR-3 ovarian
OVCAR-4 ovarian = test system: OVCAR-4 ovarian
TK-10 renal = test system: TK-10 renal
MALME-3M melanoma = test system: MALME-3M melanoma
RXF 393 renal = test system: RXF 393 renal
A549 NSCLC = test system: A549 NSCLC
HCT-15 colon = test system: HCT-15 colon
NCI/ADR-RES ovarian = test system: NCI/ADR-RES ovarian
SNB-75 CNS = test system: SNB-75 CNS

Row | Structure (SMILES) | TGI (HCT-116 colon) [µM] | TGI (OVCAR-3 ovarian) [µM] | TGI (OVCAR-4 ovarian) [µM] | TGI (TK-10 renal) [µM] | TGI (MALME-3M melanoma) [µM] | TGI (RXF 393 renal) [µM] | TGI (A549 NSCLC) [µM] | TGI (HCT-15 colon) [µM] | TGI (NCI/ADR-RES ovarian) [µM] | TGI (SNB-75 CNS) [µM] | GI50 (HCT-15 colon) [µM] | GI50 (HCT-116 colon) [µM] | GI50 (OVCAR-3 ovarian) [µM] | GI50 (OVCAR-4 ovarian) [µM] | GI50 (TK-10 renal) [µM] | GI50 (MALME-3M melanoma) [µM] | GI50 (NCI/ADR-RES ovarian) [µM] | GI50 (RXF 393 renal) [µM] | GI50 (A549 NSCLC) [µM] | GI50 (SNB-75 CNS) [µM]
1 | CCOC(=O)C(=O)Nc1ccccc1OCC | > 100 | > 100 | > 100 | > 100 | > 100 | > 100 | > 100 | – | – | – | – | – | – | – | – | – | – | – | – | –
2 | CC[C@H]1CN(C)[C@H]2Cc3c([nH]c4ccccc34)C(=O)C[C@H]1C2C(=O)OC (stereo partly specified) | > 100 | > 100 | > 100 | > 100 | > 100 | > 100 | > 100 | > 100 | > 100 | – | – | – | – | – | – | – | – | – | – | –
3 | OCC(O)COc1c(Cl)cc(Cl)cc1Cl (stereo unspecified) | > 100 | > 100 | > 100 | > 100 | > 100 | > 100 | > 100 | > 100 | – | > 100 | – | – | – | – | – | – | – | – | – | –
4 | O=C1CCCC(O)=C1SC1=C(O)CCCC1=O | > 100 | > 100 | > 100 | > 100 | > 100 | > 100 | > 100 | > 100 | – | > 100 | – | – | – | – | – | – | – | – | – | –
5 | C=C(C)[C@@H]1CC[C@]2(C(=O)O)CC[C@]3(C)[C@H](CC[C@@H]4[C@@]5(C)C/C(=C/c6cccc(I)c6)C(=O)C(C)(C)[C@@H]5CC[C@]43C)[C@@H]12 | 3.53 | 3.7 | 8.28 | 20.6 | 6.65 | 11.8 | 6.31 | 10.2 | 14.2 | – | 2.63 | 1.78 | 1.78 | 2.38 | 3.25 | 2.46 | 3.22 | 2.88 | 1.49 | –
6 | O=C(Oc1ccccc1Cl)c1ccccc1Nc1cccc(C(F)(F)F)c1 | 40.9 | 32.9 | > 100 | 67.9 | – | 43.9 | > 100 | > 100 | 44.4 | > 100 | 29.4 | 14.7 | 15.4 | 62.7 | 32.7 | – | 19 | 13.9 | 36 | 43.1
7 | O=C1CC(c2ccsc2)c2snc(-c3ccc(Cl)cc3)c2N1 (stereo unspecified) | > 100 | 4.78 | > 100 | – | > 100 | 50.8 | > 100 | > 100 | 2.37 | 9.71 | 0.489 | 0.515 | 0.694 | 5.6 | – | 2.72 | 0.364 | 3.49 | 0.626 | 1.71
8 | O=c1ccn(C2(CO)C=C(CO)C(O)C2O)c(=O)[nH]1 (stereo unspecified) | > 25.7 | > 25.7 | > 25.7 | > 25.7 | > 25.7 | > 25.7 | > 25.7 | > 25.7 | – | > 25.7 | – | – | – | – | – | – | – | – | – | –
9 | CCC(C)c1cccc(C)c1NC(=O)C(=O)Cc1nc2ccccc2s1 (stereo unspecified) | > 100 | > 100 | > 100 | > 100 | > 100 | > 100 | > 100 | > 100 | – | > 100 | – | – | – | – | – | – | – | – | – | –
